Measured values: PubChem BioAssay AID248 (DTP/NCI, 2004)
Several values for one entry are separate records, joined by “and”; a condition that tells them apart may be missing. Equal values may be shown once. Toxic doses and inconclusive results are not listed. Rule as the data show it: active = T/C of 150% or more; inactive = T/C below 125%.

System: L1210 leukemia ip in BDF1 mice, survival T/C
Test: NCI In Vivo Anticancer Drug Screen. Data for tumor model L1210 Leukemia (intraperitoneal) in B6D2F1 (BDF1) mice
Settings: higher = longer survival
Outline: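 Read-out is survival time, reported as the treated-group measurement over the vehicle-control measurement.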

[1] = endpoint: mean survival time, dose: 100.0 mg/kg/injection, schedule: Q01DX009 (ip), vehicle: saline
[2] = endpoint: mean survival time, dose: 200.0 mg/kg/injection, schedule: Q01DX009 (ip), vehicle: saline
[3] = endpoint: mean survival time, dose: 400.0 mg/kg/injection, schedule: Q01DX009 (ip), vehicle: saline

Measured: T/C

CC(=O)OC1(C)CC(C)C(=O)C(C(O)CC2CC(=O)NC(=O)C2)C1 (stereo unspecified)
inactive: endpoint: mean survival time, dose: 0.05 mg/kg/injection, schedule: Q01DX009 (ip), vehicle: saline with Tween-80 108 % of control | endpoint: mean survival time, dose: 0.06 mg/kg/injection, schedule: Q01DX009 (ip), vehicle: water 107 % of control | endpoint: mean survival time, dose: 0.1 mg/kg/injection, schedule: Q01DX009 (ip), vehicle: saline with Tween-80 114 % of control | endpoint: mean survival time, dose: 0.12 mg/kg/injection, schedule: Q01DX009 (ip), vehicle: saline 117 % of control | endpoint: mean survival time, dose: 0.15 mg/kg/injection, schedule: Q01DX009 (ip), vehicle: saline with Tween-80 91 % of control | endpoint: mean survival time, dose: 0.15 mg/kg/injection, schedule: Q01DX009 (ip), vehicle: saline 120 % of control | endpoint: mean survival time, dose: 0.2 mg/kg/injection, schedule: Q01DX009 (ip), vehicle: saline with Tween-80 120 % of control | endpoint: mean survival time, dose: 0.25 mg/kg/injection, schedule: Q01DX009 (ip), vehicle: saline 109 % of control | endpoint: mean survival time, dose: 0.3 mg/kg/injection, schedule: Q01DX009 (ip), vehicle: saline 118 % of control | endpoint: mean survival time, dose: 0.5 mg/kg/injection, schedule: Q01DX009 (ip), vehicle: saline 96 % of control | endpoint: mean survival time, dose: 0.5 mg/kg/injection, schedule: Q01DX009 (ip), vehicle: water 108 % of control | endpoint: mean survival time, dose: 0.5 mg/kg/injection, schedule: Q04DX003 (ip), vehicle: water 108 % of control | endpoint: mean survival time, dose: 1.0 mg/kg/injection, schedule: Q01DX009 (ip), vehicle: water 100 % of control | endpoint: mean survival time, dose: 1.0 mg/kg/injection, schedule: Q04DX003 (ip), vehicle: saline 115 % of control | endpoint: mean survival time, dose: 1.0 mg/kg/injection, schedule: Q04DX003 (ip), vehicle: water 109 % of control | endpoint: mean survival time, dose: 1.2 mg/kg/injection, schedule: Q01DX009 (ip), vehicle: saline 115 % of control | endpoint: mean survival time, dose: 2.0 mg/kg/injection, schedule: Q01DX001 (ip), vehicle: saline 102 % of control | endpoint: mean survival time, dose: 2.0 mg/kg/injection, schedule: Q04DX003 (ip), vehicle: saline 116 % of control | endpoint: mean survival time, dose: 2.0 mg/kg/injection, schedule: Q04DX003 (ip), vehicle: water 108 % of control | endpoint: mean survival time, dose: 2.0 mg/kg/injection, schedule: Q08DX002 (ip), vehicle: saline 102 % of control | endpoint: mean survival time, dose: 4.0 mg/kg/injection, schedule: Q01DX001 (ip), vehicle: saline 100 % of control | endpoint: mean survival time, dose: 4.0 mg/kg/injection, schedule: Q04DX003 (ip), vehicle: saline 114 % of control | endpoint: mean survival time, dose: 4.0 mg/kg/injection, schedule: Q04DX003 (ip), vehicle: water 100 % of control | endpoint: mean survival time, dose: 4.0 mg/kg/injection, schedule: Q08DX002 (ip), vehicle: saline 98 % of control | endpoint: mean survival time, dose: 8.0 mg/kg/injection, schedule: Q01DX001 (ip), vehicle: saline 109 % of control | endpoint: mean survival time, dose: 8.0 mg/kg/injection, schedule: Q08DX002 (ip), vehicle: saline 100 % of control | endpoint: mean survival time, dose: 62.5 micrograms/kg/injection, schedule: Q01DX009 (ip), vehicle: saline 115 % of control | endpoint: mean survival time, dose: 125.0 micrograms/kg/injection, schedule: Q01DX009 (ip), vehicle: saline 123 % of control | endpoint: mean survival time, dose: 125.0 micrograms/kg/injection, schedule: Q03HX008 (ip), vehicle: saline 104 % of control | endpoint: mean survival time, dose: 125.0 micrograms/kg/injection, schedule: Q03HX016 (ip), vehicle: saline 123 % of control | endpoint: mean survival time, dose: 250.0 micrograms/kg/injection, schedule: Q01DX009 (ip), vehicle: saline 101 % of control | endpoint: mean survival time, dose: 250.0 micrograms/kg/injection, schedule: Q03HX008 (ip), vehicle: saline 112 % of control | endpoint: median survival time, dose: 1.0 mg/kg/injection, schedule: Q04DX003 (ip), vehicle: saline 103 % of control | endpoint: median survival time, dose: 2.0 mg/kg/injection, schedule: Q04DX003 (ip), vehicle: saline 105 % of control | endpoint: median survival time, dose: 4.0 mg/kg/injection, schedule: Q04DX003 (ip), vehicle: saline 106 % of control | endpoint: median survival time, dose: 8.0 mg/kg/injection, schedule: Q04DX003 (ip), vehicle: saline 114 % of control

OC1CCCC(c2ccccc2)C1 (stereo unspecified)
inactive: endpoint: mean survival time, dose: 100.0 mg/kg/injection, schedule: Q01DX009 (ip), vehicle: Klucel (hydroxypropylcellulose) (HPC) 97 % of control | endpoint: mean survival time, dose: 200.0 mg/kg/injection, schedule: Q01DX009 (ip), vehicle: Klucel (hydroxypropylcellulose) (HPC) 97 % of control | endpoint: mean survival time, dose: 400.0 mg/kg/injection, schedule: Q01DX009 (ip), vehicle: Klucel (hydroxypropylcellulose) (HPC) 95 % of control

COC(=O)C(Cl)C(Cl)c1ccccc1 (stereo unspecified)
inactive: endpoint: mean survival time, dose: 100.0 mg/kg/injection, schedule: Q04DX003 (ip), vehicle: saline with Tween-80 97 % of control | endpoint: mean survival time, dose: 200.0 mg/kg/injection, schedule: Q04DX003 (ip), vehicle: saline with Tween-80 97 % of control | endpoint: mean survival time, dose: 400.0 mg/kg/injection, schedule: Q04DX003 (ip), vehicle: saline with Tween-80 94 % of control

C[CH2][Sn](/[CH]=C/C=C/OC)([CH2]C)[CH2]C
inactive: endpoint: mean survival time, dose: 0.19 mg/kg/injection, schedule: Q01DX009 (ip), vehicle: saline 99 % of control | endpoint: mean survival time, dose: 0.39 mg/kg/injection, schedule: Q01DX009 (ip), vehicle: saline 94 % of control | endpoint: mean survival time, dose: 0.78 mg/kg/injection, schedule: Q01DX009 (ip), vehicle: saline 99 % of control | endpoint: mean survival time, dose: 6.25 mg/kg/injection, schedule: Q01DX009 (ip), vehicle: saline 94 % of control | endpoint: mean survival time, dose: 12.5 mg/kg/injection, schedule: Q01DX009 (ip), vehicle: saline 97 % of control

O=C(NCCCl)NC1CS(=O)(=O)CS(=O)(=O)C1
inactive: endpoint: mean survival time, dose: 75.0 mg/kg/injection, schedule: Q01DX001 (ip), vehicle: other 104 % of control

CCN(C)CCN(C)CC
inactive: [1] 102 % of control | endpoint: mean survival time, dose: 100.0 mg/kg/injection, schedule: Q04DX003 (ip), vehicle: saline 97 % of control | [2] 104 % of control | endpoint: mean survival time, dose: 200.0 mg/kg/injection, schedule: Q04DX003 (ip), vehicle: saline 99 % of control | [3] 106 % of control | endpoint: mean survival time, dose: 400.0 mg/kg/injection, schedule: Q04DX003 (ip), vehicle: saline 99 % of control

COC(=O)OCC1OC(OC(C)=O)C2OC(=O)OC12 (stereo unspecified)
inactive: endpoint: mean survival time, dose: 100.0 mg/kg/injection, schedule: Q01DX001 (ip), vehicle: saline 97 % of control | endpoint: mean survival time, dose: 200.0 mg/kg/injection, schedule: Q01DX001 (ip), vehicle: saline 97 % of control | endpoint: mean survival time, dose: 400.0 mg/kg/injection, schedule: Q01DX001 (ip), vehicle: saline 97 % of control

NCCc1cc(O)c(O)cc1O
inactive: endpoint: mean survival time, dose: 25.0 mg/kg/injection, schedule: Q01DX009 (ip), vehicle: saline 102 % of control and 107 % of control | endpoint: mean survival time, dose: 50.0 mg/kg/injection, schedule: Q01DX009 (ip), vehicle: saline 93 % of control and 103 % of control | [1] 93 % of control and 91 % of control | [2] 88 % of control | [3] 86 % of control

CC(=O)C(CCl)C(C)=O
inactive: endpoint: mean survival time, dose: 50.0 mg/kg/injection, schedule: Q01DX001 (ip), vehicle: other 102 % of control | endpoint: mean survival time, dose: 100.0 mg/kg/injection, schedule: Q01DX001 (ip), vehicle: other 96 % of control | endpoint: mean survival time, dose: 200.0 mg/kg/injection, schedule: Q01DX001 (ip), vehicle: other 96 % of control | endpoint: mean survival time, dose: 400.0 mg/kg/injection, schedule: Q01DX001 (ip), vehicle: other 96 % of control

COc1cc2c(cc1OC)C1CCC3=C(O)CCC3=[N+]1CC2 (stereo unspecified)
inactive: endpoint: mean survival time, dose: 100.0 mg/kg/injection, schedule: Q04DX002 (ip), vehicle: Klucel (hydroxypropylcellulose) (HPC) 101 % of control | endpoint: mean survival time, dose: 200.0 mg/kg/injection, schedule: Q04DX002 (ip), vehicle: Klucel (hydroxypropylcellulose) (HPC) 86 % of control

CC(C)(c1cc(Cl)c(OCCO)c(Cl)c1)c1cc(Cl)c(OCCO)c(Cl)c1
inactive: endpoint: mean survival time, dose: 100.0 mg/kg/injection, schedule: Q01DX009 (ip), vehicle: saline with Tween-80 103 % of control | endpoint: mean survival time, dose: 200.0 mg/kg/injection, schedule: Q01DX009 (ip), vehicle: saline with Tween-80 103 % of control | endpoint: mean survival time, dose: 400.0 mg/kg/injection, schedule: Q01DX009 (ip), vehicle: saline with Tween-80 95 % of control
